# Laboratory results from patent US12138256B2, “Treatment of cardiopulmonary disorders” (Bayer Aktiengesellschaft, priority 2021, dated 2024).
# Test system: pulmonary vascular resistance (PVR)
# Test: Phase 1b, patients with PAH or CTEPH, inhaled single doses, right heart catheterization: PVR and mPAP (C-4.4)
# Format: in vivo, human
# Procedure: Patients with PAH or CTEPH were treated in a clinical phase 1b study with escalating orally inhaled single* doses of 240 μg (2 capsules of 120 μg), 480 μg, 1000 μg, 2000 (2 capsules of 1000 μg) or 4000 μg (4 capsules of 1000 μg) of a dry powder of example 4 (see under D-1, e.g. tables 17 and 20), inserted into a handheld inhalation device, inhaled by deep inhalative breath into the deep parts of the lung. (*single dose means the administration of one dosage form/capsule as well as administration of two or more dosage forms/capsules simultaneously or consecutively within a short time period). The included patients had no background treatment with standard of care (SoC) medication for PAH or CTEPH (such as endothelin antagonists, prostanoids, phosphodiesterase type 5 inhibitor or soluble guanylate cyclase stimulators). Patients in this study underwent invasive right heart catheterization as medically indicated routine diagnostic. Primary objective of the study was to investigate the peak percent reduction from baseline in PVR. Patients had to have a baseline pulmonary artery pressure (mPAP) of ≥25 mmHg and a PVR of ≥400 dyn·sec·cm^−5 (5 Wood Units) and were not to show vaso-responsiveness to initial iNO inhalation testing to be included in the per protocol analysis. Plasma concentrations (pharmacokinetics) of the administered drug at several time points after administration were measured and safety and tolerability was assessed.
# The study is divided into two parts, Part A and Part B. In Part A escalating aforementioned single doses were administered to patients without background treatment with standard of care (SoC) medication for PAH or CTEPH (such as endothelin antagonists, prostanoids, phosphodiesterase type 5 inhibitor or soluble guanylate cyclase stimulators). In Part B, after finalization of Part A, a selected dose from PartA will be tested in further patients without background SoC treatment (group 1) and additionally in patients on monotherapy with SoC (group 2) and on dual combination therapy with SoC (group 3).
# The PVR is a derived parameter from parameters directly measured during the right heart catheterization procedure. The direct parameters included in the calculation are: mean pulmonary arterial pressure [mmHg](mPAP), pulmonary capillary wedge pressure [mmHg] (PCWP), and cardiac output [l/min] (CO). The PVR is calculated according to the formula: PVR [dyn*see*cm^−5]=80*(mPAP-PCWP)/CO.
# Overall 38 patients received a dose of dry powder of example 4. A total of 4 patients in each dose group were included into the per protocol set as planned (total 20 patients). A dose-dependent mean change of PVR from baseline could be clearly observed peaking in an enduring mean change of approximately −30% in the 2000 μg and 4000 μg groups (for details of PVR see FIG. 82 and table C4.4.1). The decreases in PVR were predominantly driven by decreases in pulmonary arterial pressure (for details of mean PAP see FIG. 83 and table C4.4.2). A mean peak change level of −20%—as the predefined relevant threshold level—was clearly exceeded peaking in the 2000 μg and 4000 μg groups (mean peak changes were: −21.0%, −16.1%, −25.9%, −38.1%, −36.3% for 240, 480, 1000, 2000, and 4000 μg, respectively). The magnitude of mean change in PVR of −30% from baseline was at the same level as for the inhaled competitor Treprostinil (Tyvaso®) after single administration in a historical comparison [Voswinckel et al, Journal of American College of Cardiology Vol. 48, No. 8, 2006 Oct. 17, 2006:1672-81]. However, the effect after example 4 application was advantageously sustained with no decrease in response until the end of the measurement period of 3 h (a measurement period of >3 h was technically not feasible for the patients with right heart catheter in the study). […] Increase of systemic cGMP (cyclic Guanosine Monophosphate) confirmed strong target engagement of sGC activation. […]
# [1] = 240 μg, 0 D 00 H 00 M (baseline)
# [2] = 480 μg, 0 D 00 H 00 M (baseline)
# [3] = 1000 μg, 0 D 00 H 00 M (baseline)
# [4] = 2000 μg, 0 D 00 H 00 M (baseline)
# [5] = 4000 μg, 0 D 00 H 00 M (baseline)
compound,measurement,setting,value
"O=C(O)c1ccc(CCN(CCc2ccccc2OCc2ccc(-c3ccc(C(F)(F)F)cc3)cc2Cl)[C@H]2CCCc3nc(C(=O)O)ccc32)cc1 [example 4, (5S)-{[2-(4-Carboxyphenyl)ethyl][2-(2-{[3-chloro-4′-(trifluoromethyl)biphenyl-4-yl]methoxy}phenyl)-ethyl]amino}-5,6,7,8-tetrahydroquinoline-2-carboxylic acid]",mean peak change of PVR from baseline,240 μg,−21.0%
same,"mean pulmonary arterial pressure (mPAP), mean ± SD",[1],42.8 ± 11.1 mmHg
same,"pulmonary vascular resistance (PVR), mean ± SD",[1],788.338 ± 416.914 dyn·sec·cm^−5
same,"mean pulmonary arterial pressure (mPAP), mean ± SD","240 μg, 0 D 00 H 30 M",42.5 ± 11.0 mmHg
same,"pulmonary vascular resistance (PVR), mean ± SD","240 μg, 0 D 00 H 30 M",749.012 ± 398.928 dyn·sec·cm^−5
same,"mean pulmonary arterial pressure (mPAP), mean ± SD","240 μg, 0 D 01 H 00 M",44.3 ± 10.4 mmHg
same,"pulmonary vascular resistance (PVR), mean ± SD","240 μg, 0 D 01 H 00 M",734.427 ± 396.799 dyn·sec·cm^−5
same,"mean pulmonary arterial pressure (mPAP), mean ± SD","240 μg, 0 D 01 H 30 M",43.0 ± 8.0 mmHg
same,"pulmonary vascular resistance (PVR), mean ± SD","240 μg, 0 D 01 H 30 M",726.362 ± 364.099 dyn·sec·cm^−5
same,"mean pulmonary arterial pressure (mPAP), mean ± SD","240 μg, 0 D 02 H 00 M",39.5 ± 7.9 mmHg
same,"pulmonary vascular resistance (PVR), mean ± SD","240 μg, 0 D 02 H 00 M",710.844 ± 410.668 dyn·sec·cm^−5
same,"mean pulmonary arterial pressure (mPAP), mean ± SD","240 μg, 0 D 02 H 30 M",42.0 ± 6.5 mmHg
same,"pulmonary vascular resistance (PVR), mean ± SD","240 μg, 0 D 02 H 30 M",716.209 ± 419.311 dyn·sec·cm^−5
same,"mean pulmonary arterial pressure (mPAP), mean ± SD","240 μg, 0 D 03 H 00 M",39.0 ± 4.2 mmHg
same,"pulmonary vascular resistance (PVR), mean ± SD","240 μg, 0 D 03 H 00 M",657.829 ± 291.191 dyn·sec·cm^−5
same,mean peak change of PVR from baseline,480 μg,−16.1%
same,"mean pulmonary arterial pressure (mPAP), mean ± SD",[2],55.0 ± 8.6 mmHg
same,"pulmonary vascular resistance (PVR), mean ± SD",[2],1055.863 ± 317.077 dyn·sec·cm^−5
same,"mean pulmonary arterial pressure (mPAP), mean ± SD","480 μg, 0 D 00 H 30 M",52.3 ± 8.4 mmHg
same,"pulmonary vascular resistance (PVR), mean ± SD","480 μg, 0 D 00 H 30 M",1003.264 ± 300.639 dyn·sec·cm^−5
same,"mean pulmonary arterial pressure (mPAP), mean ± SD","480 μg, 0 D 01 H 00 M",53.8 ± 9.1 mmHg
same,"pulmonary vascular resistance (PVR), mean ± SD","480 μg, 0 D 01 H 00 M",1007.504 ± 290.883 dyn·sec·cm^−5
same,"mean pulmonary arterial pressure (mPAP), mean ± SD","480 μg, 0 D 01 H 30 M",55.0 ± 8.0 mmHg
same,"pulmonary vascular resistance (PVR), mean ± SD","480 μg, 0 D 01 H 30 M",1031.647 ± 252.210 dyn·sec·cm^−5
same,"mean pulmonary arterial pressure (mPAP), mean ± SD","480 μg, 0 D 02 H 00 M",52.5 ± 7.9 mmHg
same,"pulmonary vascular resistance (PVR), mean ± SD","480 μg, 0 D 02 H 00 M",908.704 ± 252.569 dyn·sec·cm^−5
same,"mean pulmonary arterial pressure (mPAP), mean ± SD","480 μg, 0 D 02 H 30 M",54.0 ± 9.7 mmHg
same,"pulmonary vascular resistance (PVR), mean ± SD","480 μg, 0 D 02 H 30 M",1038.344 ± 263.837 dyn·sec·cm^−5
same,"mean pulmonary arterial pressure (mPAP), mean ± SD","480 μg, 0 D 03 H 00 M",56.0 ± 11.1 mmHg
same,"pulmonary vascular resistance (PVR), mean ± SD","480 μg, 0 D 03 H 00 M",909.265 ± 259.510 dyn·sec·cm^−5
same,mean peak change of PVR from baseline,1000 μg,−25.9%
same,"mean pulmonary arterial pressure (mPAP), mean ± SD",[3],34.3 ± 4.9 mmHg
same,"pulmonary vascular resistance (PVR), mean ± SD",[3],608.898 ± 135.153 dyn·sec·cm^−5
same,"mean pulmonary arterial pressure (mPAP), mean ± SD","1000 μg, 0 D 00 H 30 M",33.8 ± 7.5 mmHg
same,"pulmonary vascular resistance (PVR), mean ± SD","1000 μg, 0 D 00 H 30 M",645.387 ± 211.946 dyn·sec·cm^−5
same,"mean pulmonary arterial pressure (mPAP), mean ± SD","1000 μg, 0 D 01 H 00 M",31.8 ± 7.4 mmHg
same,"pulmonary vascular resistance (PVR), mean ± SD","1000 μg, 0 D 01 H 00 M",558.324 ± 169.860 dyn·sec·cm^−5
same,"mean pulmonary arterial pressure (mPAP), mean ± SD","1000 μg, 0 D 01 H […]",32.0 ± 8.9 mmHg
same,"pulmonary vascular resistance (PVR), mean ± SD","1000 μg, 0 D 01 H […]",542.130 ± 187.227 dyn·sec·cm^−5
same,"mean pulmonary arterial pressure (mPAP), mean ± SD","1000 μg, 0 D 02 H 00 M",32.3 ± 9.0 mmHg
same,"pulmonary vascular resistance (PVR), mean ± SD","1000 μg, 0 D 02 H 00 M",487.951 ± 144.546 dyn·sec·cm^−5
same,"mean pulmonary arterial pressure (mPAP), mean ± SD","1000 μg, 0 D 02 H […]",33.5 ± 10.7 mmHg
same,"pulmonary vascular resistance (PVR), mean ± SD","1000 μg, 0 D 02 H […]",537.812 ± 204.640 dyn·sec·cm^−5
same,"pulmonary vascular resistance (PVR), mean ± SD","1000 μg, 0 D 03 H 00 M",535.636 ± 235.786 dyn·sec·cm^−5
same,mean peak change of PVR from baseline,2000 μg,−38.1%
same,mean change of PVR from baseline,"2000 μg and 4000 μg groups, single inhaled dose, per protocol set N=4 each",approximately −30%
same,"mean pulmonary arterial pressure (mPAP), mean ± SD",[4],33.5 ± 3.4 mmHg
same,"pulmonary vascular resistance (PVR), mean ± SD",[4],468.608 ± 20.537 dyn·sec·cm^−5
same,"mean pulmonary arterial pressure (mPAP), mean ± SD","2000 μg, 0 D 00 H 30 M",33.3 ± 6.3 mmHg
same,"pulmonary vascular resistance (PVR), mean ± SD","2000 μg, 0 D 00 H 30 M",464.586 ± 58.200 dyn·sec·cm^−5
same,"mean pulmonary arterial pressure (mPAP), mean ± SD","2000 μg, 0 D 01 H 00 M",30.8 ± 5.6 mmHg
same,"pulmonary vascular resistance (PVR), mean ± SD","2000 μg, 0 D 01 H 00 M",421.730 ± 81.602 dyn·sec·cm^−5
same,"mean pulmonary arterial pressure (mPAP), mean ± SD","2000 μg, 0 D 01 H 30 M",28.5 ± 7.3 mmHg
same,"pulmonary vascular resistance (PVR), mean ± SD","2000 μg, 0 D 01 H 30 M",340.782 ± 82.566 dyn·sec·cm^−5
same,"mean pulmonary arterial pressure (mPAP), mean ± SD","2000 μg, 0 D 02 H 00 M",27.0 ± 6.1 mmHg
same,"pulmonary vascular resistance (PVR), mean ± SD","2000 μg, 0 D 02 H 00 M",339.924 ± 105.884 dyn·sec·cm^−5
same,"mean pulmonary arterial pressure (mPAP), mean ± SD","2000 μg, 0 D 02 H 30 M",27.3 ± 6.0 mmHg
same,"pulmonary vascular resistance (PVR), mean ± SD","2000 μg, 0 D 02 H 30 M",338.404 ± 87.381 dyn·sec·cm^−5
same,"mean pulmonary arterial pressure (mPAP), mean ± SD","2000 μg, 0 D 03 H 00 M",27.5 ± 5.2 mmHg
same,"pulmonary vascular resistance (PVR), mean ± SD","2000 μg, 0 D 03 H 00 M",327.284 ± 25.882 dyn·sec·cm^−5
same,mean peak change of PVR from baseline,4000 μg,−36.3%
same,"mean pulmonary arterial pressure (mPAP), mean ± SD",[5],46.0 ± 8.1 mmHg
same,"pulmonary vascular resistance (PVR), mean ± SD",[5],713.998 ± 117.204 dyn·sec·cm^−5
same,"mean pulmonary arterial pressure (mPAP), mean ± SD","4000 μg, 0 D 00 H 30 M",43.0 ± 4.6 mmHg
same,"pulmonary vascular resistance (PVR), mean ± SD","4000 μg, 0 D 00 H 30 M",616.894 ± 97.774 dyn·sec·cm^−5
same,"mean pulmonary arterial pressure (mPAP), mean ± SD","4000 μg, 0 D 01 H 00 M",41.3 ± 4.6 mmHg
same,"pulmonary vascular resistance (PVR), mean ± SD","4000 μg, 0 D 01 H 00 M",542.417 ± 97.103 dyn·sec·cm^−5
same,"mean pulmonary arterial pressure (mPAP), mean ± SD","4000 μg, 0 D 01 H 30 M",40.3 ± 5.1 mmHg
same,"pulmonary vascular resistance (PVR), mean ± SD","4000 μg, 0 D 01 H 30 M",573.812 ± 123.865 dyn·sec·cm^−5
same,"mean pulmonary arterial pressure (mPAP), mean ± SD","4000 μg, 0 D 02 H 00 M",40.0 ± 5.3 mmHg
same,"pulmonary vascular resistance (PVR), mean ± SD","4000 μg, 0 D 02 H 00 M",501.07 ± 97.979 dyn·sec·cm^−5
same,"mean pulmonary arterial pressure (mPAP), mean ± SD","4000 μg, 0 D 02 H […]",39.8 ± 3.0 mmHg
same,"pulmonary vascular resistance (PVR), mean ± SD","4000 μg, 0 D 02 H […]",526.648 ± 144.679 dyn·sec·cm^−5
same,"mean pulmonary arterial pressure (mPAP), mean ± SD","4000 μg, 0 D 03 H 00 M",39.8 ± 4.1 mmHg
same,"pulmonary vascular resistance (PVR), mean ± SD","4000 μg, 0 D 03 H 00 M",493.103 ± 130.480 dyn·sec·cm^−5
same,duration of sustained PVR effect with no decrease in response,end of the measurement period,≥ 3 h
same,tolerability,single inhaled doses 240 to 4000 μg,Overall good tolerability was seen including the highest dose of 4000 μg
